For orientation: inhibition means the change of the read-out against control, counted positive when it falls.

Each structure is given as a SMILES string. Where a SMILES comes first, the peptide text is derived from it. [ ]: non-standard residue; d: D form. The star is where a group is joined. Dolaproine = CO[C@@H]([C@@H]1CCCN1)[C@@H](C)C(=O)O; Dil = CC[C@H](C)[C@H](NC)[C@@H](CC(=O)O)OC; X2 = C[C@@H](N*)[C@@H](O)c1ccccc1; NMeV = CN[C@H](C(=O)O)C(C)C

The target of the first assay is BTK (Homo sapiens, UniProt Q06187). Put plainly: biochemical. Particulars: read-out: BTK inhibition (%).
BTK, sequence (Q06187 402-655 limits assumed): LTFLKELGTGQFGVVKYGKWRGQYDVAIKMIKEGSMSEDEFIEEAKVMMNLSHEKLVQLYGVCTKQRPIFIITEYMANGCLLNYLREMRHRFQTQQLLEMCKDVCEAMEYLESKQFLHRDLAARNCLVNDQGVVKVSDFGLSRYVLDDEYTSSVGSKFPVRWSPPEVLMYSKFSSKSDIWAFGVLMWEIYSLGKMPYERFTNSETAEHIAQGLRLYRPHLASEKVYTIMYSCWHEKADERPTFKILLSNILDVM
Take `C[C@]12CC[C@H](O)C[C@@H]1CC[C@@H]1[C@@H]2CC[C@]2(C)C(=O)CC[C@@H]12` [PCM-0214741]: the inhibition at 10 µM was -21.8%.

Regarding `CC[C@H](C)[C@@H]([C@@H](CC(=O)N1CCC[C@H]1[C@H](OC)[C@@H](C)C(=O)N[C@H](C)[C@@H](O)c1ccccc1)OC)N(C)C(=O)[C@@H](NC(=O)[C@@H](NC)C(C)C)C(C)C` [PCM-0215521] (H-[NMeV]V[Dil][Dolaproine]-X2), the inhibition at 10 µM was -3.9%.

For the molecule `OC(c1ccccc1)(c1ccccc1)C1CCNCC1` [PCM-0085781], the inhibition at 10 µM was -14%.

Regarding `NCC(CC(=O)O)c1ccccc1` (stereo not drawn) [PCM-0215126], the inhibition at 10 µM was -9.3%.

With `Cc1sc2c(c1C)C(c1ccc(Cl)cc1)=N[C@@H](CC(=O)OC(C)(C)C)c1nnc(C)n1-2` [PCM-0095747], the inhibition at 10 µM turned out to be 10.8%.

Regarding `C=C[C@@]12CN(C)[C@H]3C[C@]14C(=Nc1ccccc14)[C@@H]1C[C@@H]2[C@@H]3CO1` [PCM-0216515], the inhibition at 10 µM was -16.2%.

The same assay, now with this note: read-out: BTK inhibition (%), 0.75 uM BTK, […] probe 3l, 15 min preincubation.
With `C[N+](C)(C)CCOP(=O)([O-])OC[C@H](O)CO` [PCM-0216043], the inhibition at 10 µM turned out to be 1.7%.

Regarding `CC(C)n1c([C@H](C)Nc2ncnc(N)c2C#N)cc2cccc(-c3ccc(=O)n(C)c3)c2c1=O` [PCM-0215961], the inhibition at 10 µM is -11.6%.

With `CC(C)N1CCN(Cc2cnc(-c3cc(-c4cccc5[nH]ccc45)cc4[nH]ncc34)o2)CC1` [PCM-0213407], the inhibition at 10 µM is 51.7%.

Turning to `CNc1cc(-c2cccc(Cl)c2Cl)nc(N)n1` [PCM-0215511], the inhibition at 10 µM is -13.1%.

For `COc1cc2nc(N3CCCN(C)CC3)nc(NC3CCN(Cc4ccccc4)CC3)c2cc1OC` [PCM-0064746], the inhibition at 10 µM is -0.7%.

As for `COc1ccc2cc1Oc1ccc(cc1)C[C@H]1c3cc(c(OC)cc3CCN1C)Oc1c(O)c(OC)cc3c1[C@@H](C2)N(C)CC3` [PCM-0214869], the inhibition at 10 µM worked out at 0.8%.

`CN=C(NC#N)NCCSCc1nc[nH]c1C` [PCM-0214655]: the inhibition at 10 µM is -12.4%.

With `CC(C)c1nc(N(C)S(C)(=O)=O)nc(-c2ccc(F)cc2)c1/C=C/[C@@H](O)C[C@@H](O)CC(=O)O` [PCM-0090418], the inhibition at 10 µM is -4.7%.

`CC(C)[C@H](C)[C@@H](O)[C@H](O)[C@@H](C)[C@H]1CC[C@H]2[C@@H]3COC(=O)[C@H]4C[C@H](O)[C@H](O)C[C@]4(C)[C@H]3CC[C@]12C` [PCM-0215160]: the inhibition at 10 µM was -10.1%.

Take `Nc1ncnc2c1ncn2[C@H]1C[C@H](O)[C@@H](CO)O1` [PCM-0101923]: the inhibition at 10 µM came out at 15.4%.

`CCNC(=O)[C@@H]1CCCN1C(=O)[C@H](CCCN=C(N)N)NC(=O)[C@H](CC(C)C)NC(=O)[C@@H](C)NC(=O)[C@H](Cc1ccc(O)cc1)NC(=O)[C@H](CO)NC(=O)[C@H](Cc1c[nH]c2ccccc12)NC(=O)[C@H](Cc1cnc[nH]1)NC(=O)C1CCC(=O)N1` (stereo partly drawn) [PCM-0216272]: the inhibition at 10 µM worked out at 23.8%.

For the molecule `Clc1cccc(CN=C2Nc3ccccc3NC23CCNCC3)c1` [PCM-0215457], the inhibition at 10 µM turned out to be 4.6%.

For the molecule `CCCC(CCC)C(=O)OC1C[C@H]2CC[C@@H](C1)[N+]2(C)C` (stereo partly drawn) [PCM-0215249], the inhibition at 10 µM is -37.4%.

Regarding `C=C1CC[C@H]2O[C@]2(C)CC[C@@H]2[C@@H]1CC2(C)C` [PCM-0214945], the inhibition at 10 µM is -11.7%.

In the case of `C/C1=C\CC[C@H](C)C(=O)C[C@@H](C(C)C)C(=O)C1` [PCM-0216439], the inhibition at 10 µM is -3.9%.

With `CCCCNc1ncc2c(-c3ccc(CN4CCN(C)CC4)cc3)cn(C3CCC(O)CC3)c2n1` (stereo not drawn) [PCM-0215532], the inhibition at 10 µM worked out at 55.9%.

Turning to `O=C(O)Cc1ccc2c(c1)C(=O)c1ccccc1CO2` [PCM-0216047], the inhibition at 10 µM is -5.5%.

As for `COc1ccc(CC(=O)O)cc1OC` [PCM-0214949], the inhibition at 10 µM was -0.8%.

Consider `CN(CCOc1ccc(NS(C)(=O)=O)cc1)CCc1ccc(NS(C)(=O)=O)cc1` [PCM-0065138], for which the inhibition at 10 µM was -7%.

In the case of `Cc1c(Nc2ncccc2C(=O)O)cccc1C(F)(F)F` [PCM-0086423], the inhibition at 10 µM is -9%.

On to `CC(C)C(=O)Nc1ccc([N+](=O)[O-])c(C(F)(F)F)c1` [PCM-0065325], for which the inhibition at 10 µM was -3.4%.

Turning to `CC(=O)OCC(CCn1cnc2cnc(N)nc21)COC(C)=O` [PCM-0065613], the inhibition at 10 µM is -20.2%.

As to `NNc1nnc(NN)c2ccccc12` [PCM-0215993], the inhibition at 10 µM is 9.3%.

Take `O=C(O)CCCCC(CCSCc1ccccc1)SCc1ccccc1` (stereo not drawn) [PCM-0095341]: the inhibition at 10 µM was -39.7%.

`O=C(Nc1ccccc1)Nc1ccc(-c2ccc(C(=O)[C@@H]3CCC[C@H]3C(=O)O)cc2)cc1` [PCM-0095351]: the inhibition at 10 µM came to 22.6%.

Regarding `O=C(NOCCO)c1ccc2cncn2c1Nc1ccc(I)cc1F` [PCM-0215498], the inhibition at 10 µM amounted to 28.3%.

On to `C=C[C@@]1(C)CC(=O)[C@]2(O)[C@@]3(C)[C@@H](O)CCC(C)(C)[C@@H]3[C@H](O)[C@H](OC(C)=O)[C@@]2(C)O1` [PCM-0095317], for which the inhibition at 10 µM is -17.1%.

With `CCO[C@@H]1OC(=O)C[C@@H]1NC(=O)[C@@H]1CCCN1C(=O)[C@@H](NC(=O)c1ccc(N)c(Cl)c1)C(C)(C)C` [PCM-0214671], the inhibition at 10 µM was -8.6%.

Take `C/C1=C\CC[C@]23O[C@H]2[C@@H](OC3=O)c2c(C)coc2C1` [PCM-0216481]: the inhibition at 10 µM is -16.2%.

Regarding `C[C@H]1CCC/C=C/[C@@H]2C[C@H](O)C[C@H]2[C@H](O)/C=C/C(=O)O1` [PCM-0095573], the inhibition at 10 µM was found to be 0.8%.

Turning to `Cc1[nH]nc2ccc(-c3cncc(OC[C@@H](N)Cc4ccccc4)c3)cc12` [PCM-0095333], the inhibition at 10 µM is -17.2%.

For `COc1cc2ncnc(Nc3ccc(F)c(Cl)c3)c2cc1OCCCN1CCOCC1` [PCM-0086349], the inhibition at 10 µM was 2.1%.

As to `COC(=O)[C@@]1(C)CC[C@]2(C(=O)O)CC[C@]3(C)C(=CC[C@@H]4[C@@]5(C)C[C@H](O)[C@H](O)[C@@](C)(CO)[C@@H]5CC[C@]43C)[C@@H]2C1` [PCM-0216474], the inhibition at 10 µM is -0.8%.

As for `COCC1=C(C(=O)OC(C)OC(=O)OC(C)C)N2C(=O)[C@@H](NC(=O)/C(=N\OC)c3csc(N)n3)[C@H]2SC1` (stereo partly drawn) [PCM-0216141], the inhibition at 10 µM is -11.6%.

In the case of `C=CC(=O)Nc1cccc(Nc2nc(Nc3ccc(N4CCN(C(C)=O)CC4)cc3OC)ncc2C(F)(F)F)c1` [PCM-0215245], the inhibition at 10 µM amounted to 95.9%.

For `C#Cc1cccc(Nc2ncnc3cc4c(cc23)OCCOCCOCCO4)c1` [PCM-0095422], the inhibition at 10 µM is -16.6%.

As for `O=c1cc(-c2ccc(O)cc2)oc2cc(O)cc(O)c12` [PCM-0064643], the inhibition at 10 µM amounted to 63.8%.

Take `Cc1c[nH]c(=O)[nH]c1=O` [PCM-0216631]: the inhibition at 10 µM was 14.7%.

In the case of `COc1ncnc(NS(=O)(=O)c2ccc(N)cc2)c1OC` [PCM-0086280], the inhibition at 10 µM was 0.8%.

Turning to `CC(C)Nc1cc(-c2c[nH]c(C(=O)N[C@H](CO)c3cccc(Cl)c3)c2)c(Cl)cn1` [PCM-0215481], the inhibition at 10 µM turned out to be 78.6%.

Turning to `c1ccc2c(c1)[I+]c1ccccc1-2` [PCM-0215888], the inhibition at 10 µM was -0.7%.

As for `COc1ccc(CNCc2cccc3ccccc23)cc1` [PCM-0095454], the inhibition at 10 µM is -19.5%.

Turning to `O=[N+]([O-])c1ccc(Nc2ccccc2-c2ccccc2)c2nonc12` [PCM-0215806], the inhibition at 10 µM amounted to 74.1%.

Take `OC[C@@H](O)[C@@H](O[C@@H]1O[C@H](CO)[C@H](O)[C@H](O)[C@H]1O)[C@H](O)[C@@H](O)CO` [PCM-0090607]: the inhibition at 10 µM was found to be 17.8%.

For the molecule `NC(=O)c1cccnc1` [PCM-0085961], the inhibition at 10 µM turned out to be 12.5%.

In the case of `COCCCN1CCC(NC(=O)c2cc(Cl)c(N)c3c2OCC3)CC1` [PCM-0095543], the inhibition at 10 µM is -16.3%.

As to `CC1=C(C(=O)Nc2cc3cn[nH]c3cc2F)C(c2ccc(C(F)(F)F)cc2)CC(=O)N1` (stereo not drawn) [PCM-0095153], the inhibition at 10 µM was found to be 48.3%.

`COC(=O)c1ccccc1O` [PCM-0215919]: the inhibition at 10 µM was -10.9%.

As to `CCOC(=O)[C@H](CCc1ccccc1)N[C@@H](C)C(=O)N(CC(=O)O)C1Cc2ccccc2C1` [PCM-0216640], the inhibition at 10 µM is -10%.

As to `CCc1ccc(Cc2ccc3c(c2)[C@]2(OC3)O[C@H](CO)[C@@H](O)[C@H](O)[C@H]2O)cc1` [PCM-0215855], the inhibition at 10 µM is 5.4%.

For `CC(=O)O[C@H]1C[C@@]2(C)[C@@H](C[C@@H](O)[C@H]3[C@@]4(C)CC[C@@H](O)[C@@H](C)[C@@H]4CC[C@@]32C)/C1=C(\CCC=C(C)C)C(=O)O` [PCM-0214838], the inhibition at 10 µM turned out to be 6.2%.

Turning to `CC(C)NCC(O)COc1cccc2ccccc12` (stereo not drawn) [PCM-0064763], the inhibition at 10 µM was -12.5%.

Regarding `NCCOc1ccc(Cl)cc1C(=O)Nc1ccc([N+](=O)[O-])cc1Cl` [PCM-0215860], the inhibition at 10 µM is 7.7%.

Turning to `Nc1ncnc2c1nc(Br)n2[C@@H]1O[C@@H]2COP(=O)(O)O[C@H]2[C@H]1O` [PCM-0215506], the inhibition at 10 µM worked out at 1.5%.

On to `Oc1ccc(Cc2nc3c(Cc4ccccc4)nc(-c4ccc(O)cc4)cn3c2O)cc1` [PCM-0215560], for which the inhibition at 10 µM was found to be 91.1%.

Take `COc1ccc(-c2ccc3c(N4CCOC[C@@H]4C)nc(N4CCOC[C@@H]4C)nc3n2)cc1CO` [PCM-0095110]: the inhibition at 10 µM is -8.3%.

Consider `COc1ccc2cccc(CCNC(C)=O)c2c1` [PCM-0065343], for which the inhibition at 10 µM was -16.3%.

Regarding `CN(C)[C@@H]1C(=O)C(C(N)=O)=C(O)[C@@]2(O)C(=O)C3=C(O)c4c(O)cccc4[C@@](C)(O)[C@H]3C[C@@H]12` [PCM-0085873], the inhibition at 10 µM was 6.2%.

Consider `CC1CNC(=O)NC1=O` (stereo not drawn) [PCM-0214881], for which the inhibition at 10 µM was -4.7%.

In the case of `Cc1ccc(NS(=O)(=O)c2ccc3c(c2)C2C=CCC2C(c2ccc(C(=O)O)cc2)N3)cc1C` (stereo not drawn) [PCM-0215738], the inhibition at 10 µM stood at 92.7%.

Take `Nc1ncnc2c1ccn2[C@@H]1O[C@H]([C@H](O)c2ccccc2)[C@@H](O)[C@H]1O` [PCM-0215960]: the inhibition at 10 µM was found to be 13.1%.

Consider `Cc1cc(C)c(-c2csc(NC(=O)c3ccccc3)n2)c(C)c1` [PCM-0095756], for which the inhibition at 10 µM was found to be 41.7%.

`C[S+]([O-])c1ccc(-c2nc(-c3ccc(F)cc3)c(-c3ccncc3)[nH]2)cc1` (stereo not drawn) [PCM-0095024]: the inhibition at 10 µM came to 18.6%.

(Values after paper PMC8041284, “Tunable Methacrylamides for Covalent Ligand Directed Release Chemistry” (Journal of the American Chemical Society, 2021).)
